Data on two molecules can be found in paper PMC8226722, “Comparison of Solution Chemical Properties and Biological Activity of Ruthenium Complexes of Selected β-Diketone, 8-Hydroxyquinoline and Pyrithione Ligands” (Pharmaceuticals, 2021).

pIC50: −log10 of the molar value.

Test [1] concerns array of cancer cell lines including cisplatin- and adriamycin-resistant strains. Also on record: method as in PMID 34065335. As to conditions: cited from earlier work.
In test [2] the test system is Human herpes simplex virus-2 (HSV-2). In words: Antiviral activity in Vero cells, direct qPCR. Format: cell-based. On the procedure:
Then Vero cells were infected with HSV-2 (at MOI 0.2) and were treated with the complexes for 24 h. After 24 h post infection, the cells were lysed and the virus yield reducing effect of the compounds was evaluated by comparing the yield to that seen on untreated Vero cells. The HSV-2 DNA concentration was measured by direct qPCR.
Human herpes simplex virus-2 (HSV-2) strain was (gift from Dr. Ilona Mucsi, University of Szeged, Szeged, Hungary) grown in Vero (ATCC) cells and the infectivity was measured by using the plaque titration method. The virus titer was expressed in plaque forming units (PFU).
The plates were incubated for at 37 °C, 5% CO2 for 24 h. The plates were evaluated with quantitative PCR.
At the end of the infection (24 h for HSV-2, 48 h for C. trachomatis) the supernatants of the cells were removed and the cells were washed with PBS twice, and finally 100 μL in sucrose-phosphate-glutamic acid buffer (SPG) was measured into the wells, and the cells were subjected to two freeze-thaw cycles. The mixed cell lysates were used as a template in the qPCR as described previously. Briefly, qPCR was performed with the 5× HOT FIREPol®EvaGreen®qPCR Supermix (Solis Solis BioDyne, Tartu, Estonia) and C. trachomatis pykF gene specific primer pair in a Bio-Rad CFX96 real time PCR system. The pykF primer sequences were the following: 5′-[…]-3′, 5′-[…]-3′. For each sample the cycle threshold (Ct) number corresponding to the cycle where the amplification curve crossed the base line was determined. For the quantitative measurement of HSV-2 growth a similar qPCR method was used as was applied for C. trachomatis. The HSV-2 gD2 gene specific primer pair (gD2-F: 5′-[…]-3′, gD2-R 5′-[…]-3′ was used with a 69 °C annealing-extension temperature.

For the molecule `C1N2CN3CN1CP(C2)C3.Cc1ccc(C(C)C)cc1.F[P-](F)(F)(F)(F)F.[O-]n1ccc2ccccc2c1=S.[Ru+2]` [complex 4], the “concentration up to which inactive, cancer cell line panel” value in test [1] is greater than 50 µM.

For the molecule `Cc1ccc(C(C)C)cc1.O=C(C=C([O-])C(F)(F)F)c1ccc(Cl)cc1.[Cl-].[Ru+2]` [complex 7], in test [2] (HSV-2 MOI 0.2, 24 h), the HSV-2 growth difference entry is listed as “ca. 237 fold” and the “qPCR cycles difference (dCT)” value was ~ 7.89 qPCR cycles. The negative-log IC50 (pIC50) in test [2] (MOI 0.2, 24 h, qPCR, read-out: IC50 HSV-2 growth) was roughly 4.60. Further, the concentration for an effect of 90% (IC90) in test [2] (MOI 0.2, 24 h, qPCR, read-out: IC90 HSV-2 growth) lay within 50 to 100 µM.
